Data taken from US10919914B2, “Heterocyclic compounds and uses thereof” (Infinity Pharmaceuticals, Inc., priority 2016, dated 2021).

Assays:
PI3K γ = PI3K γ (Homo sapiens (Human), UniProt P48736); assay: PI3-Kinase HTRF assay; type: biochemical
Source text: The biotinylated PIP3 and the GST-tagged PH domain recruited fluorophores (Streptavidin-Allophycocyanin and Europium-labeled anti-GST respectively) to form the fluorescence resonance energy transfer (FRET) architecture, generating a stable time-resolved FRET signal.
Other commercial kits or systems for assaying PI3-K activities are available. […] An exemplary system is PI 3-Kinase (human) HTRF™ Assay from Upstate. […] Briefly, the assay is a time resolved FRET assay that indirectly measures PIP3 product formed by the activity of a PI3-K. The kinase reaction is performed in a microtiter plate (e.g., a 384 well microtiter plate). […] The plate is sealed and incubated for 15 minutes at room temperature. […] The plate is sealed and incubated for 1 hour at room temperature. […] The plate is sealed, incubated for 1 hour at room temperature, and then read on an appropriate plate reader. Data is analyzed and IC50s are generated using GraphPad Prism 5.

PI3K δ = PI3K δ (Homo sapiens (Human), UniProt O00329); assay: PI3-Kinase HTRF assay; type: biochemical
Source text: A PI3-Kinase HTRF® assay kit (cat No. 33-016) purchased from Millipore Corporation is used to screen compounds provided herein. This assay uses specific, high affinity binding of the GRP1 pleckstrin homology (PH) domain to PIP3, the product of a Class 1A or 1B PI3 Kinase acting on its physiological substrate PIP2. During the detection phase of the assay, a complex is generated between the GST-tagged PH domain and biotinylated short chain PIP3. The biotinylated PIP3 and the GST-tagged PH domain recruited fluorophores (Streptavidin-Allophycocyanin and Europium-labeled anti-GST respectively) to form the fluorescence resonance energy transfer (FRET) architecture, generating a stable time-resolved FRET signal. The FRET complex is disrupted in a competitive manner by non-biotinylated PIP3, a product formed in the PI3 Kinase assay.
PI3 Kinase α, γ or δ activity is assayed using the PI3 Kinase HTRF® assay kit (catalogue No. 33-016) purchased from Millipore Corporation. Purified recombinant PI3Kα (catalogue No. 14-602-K), PI3Kβ (catalogue No. 14-603-K), PI3Kγ (catalogue No. 14-558-K), and PI3Kδ (catalogue No. 14-604-K) are obtained from Millipore Corporation. Purified recombinant PI3K enzyme is used to catalyze the phosphorylation of phosphatidylinositol 4,5-bisphosphate (PIP2 at 10 μM) to phosphatidylinositol 3,4,5-trisphosphate (PIP3) in the presence of 10 μM ATP. The assay is carried out in 384-well format and detected using a Perkin Elmer EnVision Xcite Multilabel Reader. Emission ratios are converted into percent inhibitions and imported into GraphPad Prism software. […] IC50 values are determined using a nonlinear regression model available in GraphPad Prism 5.
Other commercial kits or systems for assaying PI3-K activities are available. The commercially available kits or systems can be used to screen for inhibitors and/or agonists of PI3-Ks including, but not limited to, PI 3-Kinase α, β, δ, and γ. […] The plate is sealed, incubated for 1 hour at room temperature, and then read on an appropriate plate reader. Data is analyzed and IC50s are generated using GraphPad Prism 5.

[1] = system: PI3K/Akt/mTOR signaling (phosphorylation of Akt-S473 and S6); assay: Kinase signaling in blood (phosflow); type: cell-based; details: anti-CD3 stimulated splenocytes or peripheral blood mononuclear cells
Method: PI3K/Akt/mTOR signaling is measured in blood cells using the phosflow method (Methods Enzymol. (2007) 434:131-54). This method is by nature a single cell assay so that cellular heterogeneity can be detected rather than population averages. This allows concurrent distinction of signaling states in different populations defined by other markers. Phosflow is also highly quantitative. To test the effects of one or more compounds provided herein, unfractionated splenocytes, or peripheral blood mononuclear cells are stimulated with anti-CD3 to initiate T-cell receptor signaling. The cells are then fixed and stained for surface markers and intracellular phosphoproteins. […]
Similarly, aliquots of whole blood are incubated for 15 minutes with vehicle (e.g., 0.1% DMSO) or kinase inhibitors at various concentrations, before addition of stimuli to crosslink the T cell receptor (TCR) (anti-CD3 with secondary antibody) or the B cell receptor (BCR) using anti-kappa light chain antibody (Fab′2 fragments). […] The level of phosphorylation of kinase substrates such as Akt and S6 are then measured by incubating the fixed cells with labeled antibodies specific to the phosphorylated isoforms of these proteins. The population of cells are then analyzed by flow cytometry.

Sequence of PI3K δ (O00329 whole entry, the tested form may be a part): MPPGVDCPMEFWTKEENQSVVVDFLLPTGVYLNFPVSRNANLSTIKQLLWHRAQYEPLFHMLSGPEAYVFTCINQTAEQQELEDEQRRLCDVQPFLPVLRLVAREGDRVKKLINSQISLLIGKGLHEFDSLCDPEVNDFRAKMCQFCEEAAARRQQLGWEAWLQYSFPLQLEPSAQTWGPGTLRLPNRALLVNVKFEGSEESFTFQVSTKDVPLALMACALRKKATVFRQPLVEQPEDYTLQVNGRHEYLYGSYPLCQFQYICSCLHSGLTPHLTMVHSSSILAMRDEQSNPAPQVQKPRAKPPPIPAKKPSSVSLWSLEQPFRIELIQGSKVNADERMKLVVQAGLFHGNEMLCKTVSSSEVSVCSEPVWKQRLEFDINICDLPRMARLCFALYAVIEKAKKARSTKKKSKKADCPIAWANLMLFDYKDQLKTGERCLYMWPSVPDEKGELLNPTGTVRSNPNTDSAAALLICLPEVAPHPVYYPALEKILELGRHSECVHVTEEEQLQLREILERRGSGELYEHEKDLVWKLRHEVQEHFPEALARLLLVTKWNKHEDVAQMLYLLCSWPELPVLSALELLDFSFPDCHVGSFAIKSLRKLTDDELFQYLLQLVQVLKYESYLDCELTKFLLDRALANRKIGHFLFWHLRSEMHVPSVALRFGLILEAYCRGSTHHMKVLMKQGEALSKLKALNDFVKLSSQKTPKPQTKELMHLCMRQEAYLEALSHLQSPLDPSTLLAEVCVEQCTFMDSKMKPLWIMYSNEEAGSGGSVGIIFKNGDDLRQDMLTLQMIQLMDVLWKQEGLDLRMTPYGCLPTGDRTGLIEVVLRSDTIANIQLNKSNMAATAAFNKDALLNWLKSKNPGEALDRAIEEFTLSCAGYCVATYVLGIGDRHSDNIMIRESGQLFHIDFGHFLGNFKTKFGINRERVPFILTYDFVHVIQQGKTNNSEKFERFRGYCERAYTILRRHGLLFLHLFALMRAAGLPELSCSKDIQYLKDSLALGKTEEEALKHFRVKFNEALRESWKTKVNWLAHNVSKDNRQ
Sequence of PI3K δ (P27986 whole entry partner, the tested form may be a part): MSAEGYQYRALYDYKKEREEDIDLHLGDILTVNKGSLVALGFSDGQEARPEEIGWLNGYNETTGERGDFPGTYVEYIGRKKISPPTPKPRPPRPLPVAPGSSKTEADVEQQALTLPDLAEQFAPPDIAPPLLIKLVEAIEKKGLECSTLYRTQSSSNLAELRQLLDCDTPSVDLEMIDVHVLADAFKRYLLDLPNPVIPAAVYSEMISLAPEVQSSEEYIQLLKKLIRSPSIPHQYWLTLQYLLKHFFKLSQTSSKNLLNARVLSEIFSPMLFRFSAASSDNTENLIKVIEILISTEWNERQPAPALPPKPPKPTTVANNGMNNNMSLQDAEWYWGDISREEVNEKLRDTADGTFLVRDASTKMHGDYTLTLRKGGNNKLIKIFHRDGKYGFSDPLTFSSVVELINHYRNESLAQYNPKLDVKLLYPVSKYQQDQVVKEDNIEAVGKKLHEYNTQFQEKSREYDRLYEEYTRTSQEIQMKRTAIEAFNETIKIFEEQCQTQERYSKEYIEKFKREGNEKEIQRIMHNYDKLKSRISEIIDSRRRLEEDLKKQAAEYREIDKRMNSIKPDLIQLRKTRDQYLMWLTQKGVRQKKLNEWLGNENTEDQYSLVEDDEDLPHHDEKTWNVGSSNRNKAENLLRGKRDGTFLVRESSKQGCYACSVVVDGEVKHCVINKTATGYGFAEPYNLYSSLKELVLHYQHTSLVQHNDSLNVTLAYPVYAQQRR
Sequence of PI3K γ (P48736 whole entry, the tested form may be a part): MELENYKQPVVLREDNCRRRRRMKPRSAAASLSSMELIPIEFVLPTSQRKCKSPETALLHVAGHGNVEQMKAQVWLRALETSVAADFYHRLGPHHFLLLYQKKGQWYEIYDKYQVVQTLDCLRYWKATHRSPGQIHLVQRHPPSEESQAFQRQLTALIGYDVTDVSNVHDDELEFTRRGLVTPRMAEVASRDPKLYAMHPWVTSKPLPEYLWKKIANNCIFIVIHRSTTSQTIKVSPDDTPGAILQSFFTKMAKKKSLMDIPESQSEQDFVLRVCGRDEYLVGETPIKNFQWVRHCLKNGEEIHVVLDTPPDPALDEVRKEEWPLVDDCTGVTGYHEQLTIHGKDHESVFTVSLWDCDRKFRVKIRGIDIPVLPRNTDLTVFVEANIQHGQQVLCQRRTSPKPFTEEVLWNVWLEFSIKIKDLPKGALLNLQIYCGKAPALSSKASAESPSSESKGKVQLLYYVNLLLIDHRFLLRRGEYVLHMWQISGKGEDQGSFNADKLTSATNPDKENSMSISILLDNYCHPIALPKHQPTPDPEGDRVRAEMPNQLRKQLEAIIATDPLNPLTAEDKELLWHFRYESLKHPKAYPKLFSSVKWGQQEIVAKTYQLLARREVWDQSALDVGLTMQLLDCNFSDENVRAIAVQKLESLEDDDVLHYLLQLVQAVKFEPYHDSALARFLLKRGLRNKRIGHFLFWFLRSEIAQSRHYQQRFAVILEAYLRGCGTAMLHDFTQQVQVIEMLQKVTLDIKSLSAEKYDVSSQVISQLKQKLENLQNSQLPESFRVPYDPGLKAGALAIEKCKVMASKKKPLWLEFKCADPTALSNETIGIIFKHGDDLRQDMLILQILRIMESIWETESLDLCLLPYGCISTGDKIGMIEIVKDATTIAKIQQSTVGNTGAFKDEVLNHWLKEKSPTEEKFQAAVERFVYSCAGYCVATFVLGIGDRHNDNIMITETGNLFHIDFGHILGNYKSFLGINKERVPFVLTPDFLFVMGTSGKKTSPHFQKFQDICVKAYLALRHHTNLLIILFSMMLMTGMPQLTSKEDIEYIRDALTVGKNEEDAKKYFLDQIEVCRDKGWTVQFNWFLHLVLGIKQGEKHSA

Row | IC50 (PI3K γ) [µM] | IC50 (PI3K δ) [µM] | PI3K δ/PI3K γ IC50 (selectivity) (PI3K γ; δ/γ IC50 selectivity) | Akt phosphorylation (Akt-S473) [1] | S6 phosphorylation [1] | Structure (SMILES)
1 | > 5 | > 10 |  |  |  | C[C@H](NC(=O)c1c(N)ncc2ccccc12)c1cc2cccc(Cl)c2c(=O)n1-c1ccccc1 [Compound 3626]
2 |  | 1 to 5 |  |  |  | C[C@H](NC(=O)c1c(N)nn2ccccc12)c1cc2cccc(Cl)c2c(=O)n1-c1ccccc1 [Compound 31]
3 | 0.1 to 0.5 | > 10 | Y (Y = 50 to <850) |  |  | C[C@H](NC(=O)c1c(N)nn2ccccc12)c1cc2cccc(C#Cc3cnn(C)c3)c2c(=O)n1-c1ccccc1 [Compound 1]
4 |  |  |  | enhances | inhibits | CO[C@H]1C[C@@H]2CC[C@@H](C)[C@@](O)(O2)C(=O)C(=O)N2CCCC[C@H]2C(=O)O[C@H]([C@H](C)C[C@@H]2CC[C@@H](O)[C@H](OC)C2)CC(=O)[C@H](C)/C=C(\C)[C@@H](O)[C@@H](OC)C(=O)[C@H](C)C[C@H](C)/C=C/C=C/C=C/1C [rapamycin]
